Tested on: patients with type 2 diabetes
Experiment: trial 5C: Beinaglutide with metformin, multicenter, type 2 diabetes
Assay type: in vivo, human
Conditions: control group (metformin alone group); 12 weeks of treatment
Source text: Note: Covariance analysis was used for comparison between groups. The dependent variable was the change in body weight relative to baseline, and the covariate was baseline. Body weight change from baseline=post-treatment−baseline. Data from 5C test data.

CN(C)C(=N)N=C(N)N [metformin, reference compound]
proportion of subjects with weight loss from the baseline ≥3%: 27.27% | proportion of subjects with weight loss ≥5%: 10.39%
